Assay results: the supplement of paper PMC10307832

compound: Cc1ccccc1C(C(=O)NC1CCCCC1)N(C(=O)Cn1ccnc1C)c1cccc(F)c1 [IDH-C35] + Cc1nc(Nc2ncc(C(=O)Nc3c(C)cccc3Cl)s2)cc(N2CCN(CCO)CC2)n1 [Dasatinib] (partner 0.075 µM); assay: relative viability (nuclei count vs DMSO), 5 days (fraction); higher = more cells survive; conditions: first compound 0.08 µM
In short: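 Relative viability divides the nuclei count in treated wells by that in vehicle wells. Lung cancer cell lines were seeded in 1536-well plates, dosed by pin tool the next day, and fixed and stained after 5 days in one step with final 0.05% Triton X-100, 1% formaldehyde and 1 ug/ml Hoechst. Dosing was a single drug or a fixed anchor-drug dose plus five library-drug doses (not always all listed) in √10 steps, and values are medians of duplicate plates imaged at 4×.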

Cell Line	relative viability
H3255	0.406
COR-L23	0.479
COR-L 105	0.394
LOU-NH91	0.554
ChaGo-K-1	0.64
NCI-H2405	0.209
HOP-62	0.712
LU99A	0.684
BEN	0.308
HARA	0.298
HCC-78	0.361
NCI-H322M	0.244
LCLC-97TM1	0.87
NCI-H2009	0.309
A-427	0.738
NCI-H441	0.629

Cell Line	relative viability
NCI-H661	0.898
NCI-H1734	0.469
NCI-H460	0.379
NCI-H2347	0.337
SK-LU-1	0.188
201T	0.575
NCI-H1915	0.328
HCC-827	0.328
LXF-289	0.276
NCI-H23	0.779
NCI-H647	0.194
CAL-12T	0.39
NCI-H1651	0.416
EPLC-272H	0.432
NCI-H2228	0.571
NCI-H1355	0.76

same assay, conditions: first compound 0.253 µM

Cell Line	relative viability
H3255	0.415
COR-L23	0.438
COR-L 105	0.394
LOU-NH91	0.538
ChaGo-K-1	0.615
NCI-H2405	0.212
HOP-62	0.624
LU99A	0.552
BEN	0.373
HARA	0.271
HCC-78	0.315
NCI-H322M	0.253
LCLC-97TM1	0.796
NCI-H2009	0.33
A-427	0.636
NCI-H441	0.753

Cell Line	relative viability
NCI-H661	0.945
NCI-H1734	0.524
NCI-H460	0.512
NCI-H2347	0.3
SK-LU-1	0.181
201T	0.569
NCI-H1915	0.308
HCC-827	0.263
LXF-289	0.25
NCI-H23	0.718
NCI-H647	0.204
CAL-12T	0.613
NCI-H1651	0.398
EPLC-272H	0.357
NCI-H2228	0.526
NCI-H1355	0.727

same assay, conditions: first compound 0.8 µM

Cell Line	relative viability
H3255	0.306
COR-L23	0.48
COR-L 105	0.403
LOU-NH91	0.558
ChaGo-K-1	0.598
NCI-H2405	0.213
HOP-62	0.6
LU99A	0.586
BEN	0.289
HARA	0.294
HCC-78	0.496
NCI-H322M	0.26
LCLC-97TM1	0.822
NCI-H2009	0.341
A-427	0.685
NCI-H441	0.536

Cell Line	relative viability
NCI-H661	0.868
NCI-H1734	0.511
NCI-H460	0.49
NCI-H2347	0.243
SK-LU-1	0.172
201T	0.607
NCI-H1915	0.304
HCC-827	0.29
LXF-289	0.252
NCI-H23	0.738
NCI-H647	0.198
CAL-12T	0.411
NCI-H1651	0.426
EPLC-272H	0.506
NCI-H2228	0.509
NCI-H1355	0.667

same assay, conditions: first compound 2.53 µM

Cell Line	relative viability
H3255	0.453
COR-L23	0.443
COR-L 105	0.323
LOU-NH91	0.531
ChaGo-K-1	0.63
NCI-H2405	0.206
HOP-62	0.638
LU99A	0.639
BEN	0.333
HCC-78	0.325
NCI-H322M	0.247
LCLC-97TM1	0.818
NCI-H2009	0.311
A-427	0.702
NCI-H441	0.673
NCI-H661	0.974

Cell Line	relative viability
NCI-H1734	0.458
NCI-H460	0.479
NCI-H2347	0.343
SK-LU-1	0.177
201T	0.582
NCI-H1915	0.326
HCC-827	0.32
LXF-289	0.221
NCI-H23	0.901
NCI-H647	0.223
CAL-12T	0.496
NCI-H1651	0.404
EPLC-272H	0.653
NCI-H2228	0.53
NCI-H1355	0.651

same assay, conditions: first compound 8 µM

Cell Line	relative viability
H3255	0.331
COR-L23	0.445
COR-L 105	0.349
LOU-NH91	0.557
ChaGo-K-1	0.601
NCI-H2405	0.184
HOP-62	0.622
LU99A	0.542
BEN	0.293
HARA	0.328
HCC-78	0.435
NCI-H322M	0.243
LCLC-97TM1	0.809
NCI-H2009	0.303
A-427	0.658
NCI-H441	0.541

Cell Line	relative viability
NCI-H661	0.79
NCI-H1734	0.419
NCI-H460	0.495
NCI-H2347	0.282
SK-LU-1	0.191
201T	0.529
NCI-H1915	0.309
HCC-827	0.382
LXF-289	0.214
NCI-H23	0.864
NCI-H647	0.192
CAL-12T	0.396
NCI-H1651	0.382
EPLC-272H	0.323
NCI-H2228	0.537
